Active and inactive are the calls of the source. The rule behind the calls is not given here.
Tests used:
[1] = test system: Trichophyton mentagrophytes; experiment: Antifungal activity against Trichophyton mentagrophytes at 60 ug/disk; assay type: functional, organism-based
Candida albicans = experiment: Antifungal activity against Candida albicans at 60 ug/disk; assay type: functional, organism-based
P388 = experiment: Cytotoxicity against mouse P388 cells; assay type: functional, cell-based

In the case of `CC(C)=C/C=C/[C@@]1(C)CCC[C@]2(C)Oc3ccc(O)cc3C[C@@H]12` [RICCARDIPHENOL C], the Activity [1] is reported as “inactive”, the Activity (Candida albicans) is reported as “inactive” and the IC50 (P388) is reported as greater than 25 µg/mL.

From ChEMBL document CHEMBL1159277, “Sesquiterpene/quinol from a New Zealand liverwort, Riccardia crassa” (J Nat Prod, 1995)
